Assay results taken from US20240360081A1, “SULFONAMIDE OREXIN RECEPTOR AGONISTS AND USES THEREOF” (Jazz Pharmaceuticals Ireland Limited, priority 2021, published 2024).

Target: T1, human recombinant OX2 (hOX2) receptor expressed in CHO cells (Homo sapiens, UniProt O43614)
T1 construct: host or cells: CHO cells (hOX2-CHO)
T1 sequence (O43614 1-444): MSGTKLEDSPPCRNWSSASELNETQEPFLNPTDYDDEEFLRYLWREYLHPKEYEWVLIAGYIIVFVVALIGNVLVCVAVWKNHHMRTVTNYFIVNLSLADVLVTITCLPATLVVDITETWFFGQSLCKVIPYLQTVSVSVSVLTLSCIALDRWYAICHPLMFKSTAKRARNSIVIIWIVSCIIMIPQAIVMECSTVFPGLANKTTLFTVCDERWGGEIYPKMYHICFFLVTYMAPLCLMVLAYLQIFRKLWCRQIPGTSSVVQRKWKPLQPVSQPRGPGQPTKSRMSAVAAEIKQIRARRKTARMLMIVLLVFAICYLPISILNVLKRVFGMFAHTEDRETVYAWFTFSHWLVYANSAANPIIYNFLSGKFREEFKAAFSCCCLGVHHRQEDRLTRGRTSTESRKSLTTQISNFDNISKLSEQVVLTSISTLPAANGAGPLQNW
Assay: IP-1 accumulation assay (IP-One HTRF) in hOX2-CHO cells
Type: cell-based
Details: 60 min at 37° C., 11 points CRC, response as % of maximal OX-A response
Outline: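 CHO cells expressing hOX2, 20,000 cells/well in HBSS with 20 mM HEPES pH 7.4, 50 mM LiCl, 0.1% BSA; 11-point compound series, 0.5% DMSO final, 60 min at 37 °C. IP-1 by HTRF (665/615 ratio) after 60 min at room temperature, as % of maximal OX-A response; EC50 by four-parameter logistic fit, mean of ≥2 experiments in duplicate.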

Compound | EC50 [nM]
Cc1cc(C(CNS(C)(=O)=O)CO[C@H]2CC[C@@H](c3cccc(F)c3)CC2)c(=O)n(C2CC2)c1 (stereo partly drawn) [Example 5v, N-[2-(1-cyclopropyl-5-methyl-2-oxo-1,2-dihydropyridin-3-yl)-3-{[(CIS)-4-(3-fluorophenyl)cyclohexyl]oxy}propyl]methanesulfonamide] | < 100
Cc1cc(C(CNS(C)(=O)=O)CO[C@H]2CC[C@@H](c3cccc(F)c3)CC2)c(=O)n(CC(F)F)c1 (stereo partly drawn) [Example 5w, N-{2-[1-(2,2-difluoroethyl)-5-methyl-2-oxo-1,2-dihydropyridin-3-yl]-3-{[(CIS)-4-(3-fluorophenyl)cyclohexyl]oxy}propyl}methanesulfonamide] | < 100
Cc1cc(C(CNS(C)(=O)=O)CO[C@H]2CC[C@@H](c3cccc(F)c3)CC2)c(=O)n(C(F)F)c1 (stereo partly drawn) [Example 5x, N-{2-[1-(difluoromethyl)-5-methyl-2-oxo-1,2-dihydropyridin-3-yl]-3-{[(CIS)-4-(3-fluorophenyl)cyclohexyl]oxy}propyl}methanesulfonamide] | < 100
Cc1cc(-c2cccnc2)cn(C(CNS(C)(=O)=O)CO[C@H]2CC[C@@H](c3ccccc3)CC2)c1=O (stereo partly drawn) [Example 6a, N-(2-{5-methyl-6-oxo-1,6-dihydro-[3,3′-bipyridin]-1-yl}-3-{[(CIS)-4-phenylcyclohexyl]oxy}propyl) methanesulfonamide] | 1000 to 10000
Cc1cc(-n2cccn2)cn(C(CNS(C)(=O)=O)CO[C@H]2CC[C@@H](c3ccccc3)CC2)c1=O (stereo partly drawn) [Example 7a, N-{2-[3-methyl-2-oxo-5-(1H-pyrazol-1-yl)-1,2-dihydropyridin-1-yl]-3-{[(CIS)-4-phenylcyclohexyl]oxy}propyl}methanesulfonamide] | 100 to 1000
CS(=O)(=O)NCC(Cc1cccc(-c2ccccc2)c1)n1ccccc1=O (stereo not drawn) [Example 8a, N-(3-{[1,1′-biphenyl]-3-yl}-2-(2-oxo-1,2-dihydropyridin-1-yl)propyl)methanesulfonamide] | > 10000
